This note sets out measurements from patent US20050175589A1, “Anti-neoplastic viral agents” (priority 2001, published 2005).

Data set [1] deals with Hct116 cells with homozygous deletion of p53. The procedure: (§1) (a) Sensitivity of colon cancer cell lines to 5-FU. Cells were stained four days after addition of the drug. (b to e, g) Cytopathic effect assays using 10-fold dilutions of virus starting from a concentration of 10 pfu/cell. Fresh medium was added four days after infection and cells were stained 5 (SW480), 7 (Hct116 and Hct116^−/−), or 8 (HT29 and HLF) days post-infection. (f) 5-FC was added either immediately after infection (early, E) or four days after infection (late, L). Cells were stained 8 days after infection.
(§2) Cells in six-well plates were infected with ten-fold dilutions of virus in DMEM. Two hours after infection, the medium was replaced with complete medium containing or not 100 μg/ml of 5-fluorocytosine (Sigma, St. Louis, USA). Four days after infection, new medium was added. Late addition of 5-FC was performed at that time. After five to eight days (see legend to FIG. 4), the cells were fixed with 4% formaldehyde in PBS and stained with crystal violet. For the sensitivity to 5-fluorouracil (Sigma, St. Louis, USA), the drug was added at various concentrations for four days before staining with crystal violet.

A further data set relates to SW480 cells. The method, then: as §1, §2

Each structure is given as a SMILES string.

Turning to `O=c1[nH]cc(F)c(=O)[nH]1` [5-FU, 5-fluorouracil], the “resistance of p53-deleted Hct116 cells to 5-FU relative to parental cells” value in data set [1] was “only slightly more resistant than the parental cells”. The “resistance of SW480 cells to 5-FU relative to the other cell lines” value with SW480 cells is “at least 10 fold”.
